Earlier results in US8486874B2, “Water-soluble processing oil agent” (Idemitsu Kosan Co., Ltd., priority 2009, dated 2013).

Columns and labels:
[1] = Peroral rat
[2] = compared with dicyclohexylamine, Table 1 data
[3] = Percutaneous rabbit

SMILES	LD50 [1]	Toxicity relative to dicyclohexylamine [2]	LDLo [3]
C1CCC(NC2CCCCC2)CC1 [Dicyclohexylamine, reference compound]	LD50 373 mg/kg^1)	–	–
CN(C1CCCCC1)C1CCCCC1 [Methyldicyclohexylamine]	LD50 446 mg/kg^1)	considerably lower	LDLo 2 g/kg^1)
